Assay results reported in patent US7256257B2, “Pentapeptide compounds and uses related thereto” (priority 2001, dated 2007).
Where a SMILES comes first, the peptide text is derived from it. [ ]: non-standard residue; d: D form. The star is where a group is joined. Dolaproine = CO[C@@H]([C@@H]1CCCN1)[C@@H](C)C(=O)O; Dil = CC[C@H](C)[C@H](NC)[C@@H](CC(=O)O)OC; NMe2Val = CC(C)[C@@H](C(=O)*)N(C)C; dPhe(ol) = N[C@@H](CO)Cc1ccccc1; Phe(ol) = N[C@H](CO)Cc1ccccc1

Assays:
[1] = test system: Daudi Burkitt's lymphoma cells; experiment: In vitro cytotoxicity, 3H-thymidine incorporation, Daudi cells; type: cell-based; settings: for IC50: Daudi Burkitt's lymphoma, exposed 1-2 hours, 3H-thymidine incorporation 72 hours later
Method: (§1) To obtain the results shown in Table 4, the cells were exposed to drugs for 1-2 hours, and the cytotoxic effects were determined 72 hours later by the incorporation of ^3H-thymidine into DNA. Antigen expression was determined by flow cytometry and is expressed in terms of mean fluorescence intensity (MFI).
(§2) These figures show the cytotoxic effects of auristatin E and auristatin E-containing conjugates on L2987 human lung adenocarcinoma cells (FIG. 19A); and various hematologic cell lines treated with AC10-S-40a (FIG. 19B). In all assays, cells were exposed to the drugs for 2 hours, washed, and the cytotoxic activities were measured 72 hours later using ^3H-thymidine incorporation.

[2] = test system: Kato III human gastric carcinoma cells; experiment: In vitro cytotoxicity, 3H-thymidine incorporation, Kato III cells; type: cell-based; settings: exposed 1-2 hours, 3H-thymidine incorporation 72 hours later
Method: as §1
(§3) The cytotoxic effects of the mAb-S-36 conjugates on L2987 human lung adenocarcinoma cells (strongly BR96 antigen positive, weakly S2C6 antigen positive) and on Kato III human gastric carcinoma cells, (strongly BR96 antigen positive, S2C6 antigen negative) are shown in FIGS. 18A, 18B and 18C. These figures show the in vitro cytotoxicity of drugs and mAb-drug conjugates on (FIG. 18A) and (FIG. 18B) L2987 human lung adenoma cells, and (FIG. 18A) and (FIG. 18C) Kato III human gastric carcinoma cells. L2987 cells are positive for the antigens recognized by BR96 (LeY) and S2C6 (CD40), but express the LeY antigen at higher levels. Kato III cells are positive for the LeY antigen and negative for CD40. Cells were exposed to the conjugates for 2 hours, washed, and the cytotoxic effects were determined 3 days later using a thymidine incorporation assay.

[3] = test system: Karpas anaplastic large cell lymphoma; experiment: In vitro cytotoxicity, 3H-thymidine incorporation, Karpas cells; type: cell-based; settings: Karpas ALCL; exposed 1-2 hours, 3H-thymidine incorporation 72 hours later
Method: as §1, §2

[4] = test system: AU565 (breast); experiment: In vitro cytotoxicity, 3H-thymidine incorporation, AU565 cells; type: cell-based; settings: exposed 1-2 hours, 3H-thymidine incorporation 72 hours later
Method: as §1

[5] = test system: Karpas 299 (ALCL); experiment: In vitro cytotoxicity, XTT, Karpas 299 cells; type: cell-based; settings: exposed 2 hr, washed, XTT 96 hr later
Method: (§4) In vitro cytotoxicity experiments were performed to compare the activities of auristatin E (29a) and drugs of this invention. 3396 and Karpas cells were exposed to the drug for 1 and 2 hr respectively. The cells were washed, and cytotoxicity was determined 96 hr later using XTT to measure mitochondrial integrity.

[6] = test system: IM-9 (Multiple myeloma); experiment: In vitro cytotoxicity, 3H-thymidine incorporation, IM-9 cells; type: cell-based; settings: exposed 1-2 hours, 3H-thymidine incorporation 72 hours later
Method: as §1, §2

[7] = test system: 3396 human breast carcinoma cells; experiment: In vitro cytotoxicity, XTT, 3396 cells; type: cell-based; settings: 3396 breast, exposed 1 hr, washed, XTT 96 hr later
Method: as §4

[8] = test system: SKBR3 (breast); experiment: In vitro cytotoxicity, 3H-thymidine incorporation, SKBR3 cells; type: cell-based; settings: 3H-thymidine incorporation 72 hours later
Method: as §1

[9] = test system: L2987 human lung adenocarcinoma cells; experiment: In vitro cytotoxicity, 3H-thymidine incorporation, L2987 cells; type: cell-based; settings: for IC50: L2987 lung, exposed 1-2 hours, 3H-thymidine incorporation 72 hours later
Method: as §1, §3, §2

[10] = test system: L428 Hodgkin's lymphoma; experiment: In vitro cytotoxicity, 3H-thymidine incorporation, L428 cells; type: cell-based; settings: 3H-thymidine incorporation 72 hours later
Method: as §1, §2

[11] = test system: L540 Hodgkin's lymphoma; experiment: In vitro cytotoxicity, 3H-thymidine incorporation, L540 cells; type: cell-based; settings: 3H-thymidine incorporation 72 hours later
Method: as §1, §2

[12] = test system: purified esterases from guinea pig livers; experiment: Exposure to purified liver esterases (guinea pig); type: in vitro ADME; settings: prolonged exposure
[13] = Stability in human serum; type: in vitro ADME; settings: 120 hours incubation at 37 C
[14] = test system: purified esterases from rhesus monkey livers; experiment: Exposure to purified liver esterases (rhesus monkey); type: in vitro ADME; settings: prolonged exposure
[15] = test system: purified esterases from human livers; experiment: Exposure to purified liver esterases (human); type: in vitro ADME; settings: prolonged exposure
[16] = test system: purified esterases from rabbit livers; experiment: Exposure to purified liver esterases (rabbit); type: in vitro ADME; settings: prolonged exposure
[17] = Homo sapiens, Breast carcinoma cell

CC[C@H](C)[C@@H]([C@@H](CC(=O)N1CCC[C@H]1[C@H](OC)[C@@H](C)C(=O)N[C@H](C)[C@@H](O)c1ccccc1)OC)N(C)C(=O)[C@@H](NC(=O)[C@H](C(C)C)N(C)C)C(C)C [Compound 29a, N,N-dimethyl-L-valyl-N-[(1S,2R)-4-[(2S)-2-[(1R,2R)-3-[[(1R,2S)-2-hydroxy-1-methyl-2-phenylethyl]amino]-1-methoxy-2-methyl-3-oxopropyl]-1-pyrrolidinyl]-2-methoxy-1-[(1S)-1-methylpropyl]-4-oxobutyl]-N-methyl-L-valinamide, reference compound]
IC50 ([1]; Homo sapiens): 0.9 nM | IC50 ([2]; Homo sapiens): 0.7 nM | IC50 [3]: 1.2 nM | IC50 ([4]; Homo sapiens): 1.5 nM | IC50 ([5]; Homo sapiens): 1.2 nM | IC50 ([6]; Homo sapiens): 3.5 nM | IC50 [7, 17]: 6 nM | IC50 ([8]; Homo sapiens, SK-BR-3, exposed 1-2 hours): 1.5 nM | IC50 ([9]; Homo sapiens): 1 nM | IC50 ([10]; Homo sapiens, L-428, exposed 1-2 hours): 1.5 nM | IC50 ([11]; Homo sapiens, L-540, exposed 1-2 hours): 1.5 nM

CC[C@H](C)[C@@H]([C@@H](CC(=O)N1CCC[C@H]1[C@H](OC)[C@@H](C)C(=O)N[C@H](COc1ccc(C(C)=O)cc1)Cc1ccccc1)OC)N(C)C(=O)[C@@H](NC(=O)[C@H](C(C)C)N(C)C)C(C)C [Compound 58]
IC50 [7, 17]: 2.5 nM

CC[C@H](C)[C@@H]([C@@H](CC(=O)N1CCC[C@H]1[C@H](OC)[C@@H](C)C(=O)N[C@H](CO)Cc1ccccc1)OC)N(C)C(=O)[C@@H](NC(=O)[C@H](C(C)C)N(C)C)C(C)C [Compound 32] (NMe2Val-V[Dil][Dolaproine][Phe(ol)])
IC50 [7, 17]: 4.5 nM

CC[C@H](C)[C@@H]([C@@H](CC(=O)N1CCC[C@H]1[C@H](OC)[C@@H](C)C(=O)N[C@@H](COC(=O)c1ccc(C(C)=O)cc1)Cc1ccccc1)OC)N(C)C(=O)[C@@H](NC(=O)[C@H](C(C)C)N(C)C)C(C)C [Compound 49]
IC50 [7, 17]: 34 nM

CO[C@H]([C@@H](C)C(=O)N[C@H](C)[C@@H](OC(=O)CC(C)=O)c1ccccc1)[C@@H]1CCCN1C(=O)C[C@@H](OC)[C@H](C)N(C)C(=O)[C@@H](NC(=O)[C@H](C(C)C)N(C)C)C(C)C [Compound 52, Acetoacetic Ester of Auristatin E]
IC50 [7, 17]: 20 nM

CC[C@H](C)[C@@H]([C@@H](CC(=O)N1CCC[C@H]1[C@H](OC)[C@@H](C)C(=O)N[C@H](COC(=O)c1ccc(C(C)=O)cc1)Cc1ccccc1)OC)N(C)C(=O)[C@@H](NC(=O)[C@H](C(C)C)N(C)C)C(C)C [Compound 47]
IC50 ([5]; Homo sapiens): 0.075 nM | IC50 [7, 17]: 0.35 nM

CC[C@H](C)[C@@H]([C@@H](CC(=O)N1CCC[C@H]1[C@H](OC)[C@@H](C)C(=O)N[C@@H](CO)Cc1ccccc1)OC)N(C)C(=O)[C@@H](NC(=O)[C@H](C(C)C)N(C)C)C(C)C [Compound 33] (NMe2Val-V[Dil][Dolaproine][dPhe(ol)])
IC50 [7, 17]: 70 nM

CC[C@H](C)[C@@H]([C@@H](CC(=O)N1CCC[C@H]1[C@H](OC)[C@@H](C)C(=O)N[C@@H](C)[C@H](OC(=O)c1ccc(C(C)=O)cc1)c1ccccc1)OC)N(C)C(=O)[C@@H](NC(=O)[C@H](C(C)C)N(C)C)C(C)C [Compound 39a, 4-acetyl-benzoic Ester of Auristatin E]
times less cytotoxic than auristatin E (29a) ([1]; Daudi Burkitt's lymphoma cells): approximately 17 times | IC50 [1]: 15 nM | IC50 [2]: 5 nM | IC50 [3]: 13 nM | conversion to auristatin E (29a) by liver esterases [12]: failed to demonstrate any conversion | IC50 [4]: 6 nM | IC50 [5]: 4 nM | hydrolysis in human serum [13]: no detectable hydrolysis | IC50 [6]: 50 nM | conversion to auristatin E (29a) by liver esterases [14]: failed to demonstrate any conversion | IC50 [7]: 16 nM | conversion to auristatin E (29a) by liver esterases [15]: failed to demonstrate any conversion | IC50 ([8]; exposed 1-2 hours): 6 nM | cytotoxicity relative to auristatin E (29a) ([9]; L2981 cells (so in the source)): as cytotoxic as auristatin E (29a) | IC50 [9]: 0.9 nM | IC50 ([10]; exposed 1-2 hours): 13 nM | conversion to auristatin E (29a) by liver esterases [16]: failed to demonstrate any conversion | IC50 ([11]; exposed 1-2 hours): 16 nM

CC[C@H](C)[C@@H]([C@@H](CC(=O)N1CCC[C@H]1[C@H](OC)[C@@H](C)C(=O)N[C@H](C)[C@@H](OC(=O)CCCCC(=O)c1ccccc1)c1ccccc1)OC)N(C)C(=O)[C@@H](NC(=O)[C@H](C(C)C)N(C)C)C(C)C [Compound 50, 5-benzoylvaleric Ester of Auristatin E]
IC50 [7, 17]: 3 nM
